One assay relates to Dopamine receptor. Kind of assay: Ability to inhibit the binding of [3H]spiroperidol in rat striatal tissue; ND=assay not performed due to solubility problems. The assay is classed as tissue-based, Striatum.
Conditions: not given
On to `Oc1nc2ccccc2n1CCCN1CCC(c2noc3ccccc23)CC1`, for which the IC50 entry is “Insoluble”.

For the next assay, the species on record is Mus musculus. Kind of assay: animal or person. As to conditions: ip.
Description: Neuroleptic activity in vivo by ability to antagonise climbing in apomorphine dosed mice after intraperitoneal administration.
Compound `Oc1nc2ccccc2n1CCCN1CCC(c2noc3cc(Cl)ccc23)CC1` registered a 50% effective dose (ED50) of 0.8 mg/kg.
As to `Cc1[nH]c2ccccc2c1CCCN1CCC(c2noc3ccccc23)CC1`, the ED50 stood at 1.1 mg/kg.
As to `Fc1ccc2c(CCCN3CCC(c4noc5cc(F)ccc45)CC3)noc2c1`, the ED50 was 0.08 mg/kg.
`Fc1ccc(C(CCCN2CCC(c3noc4ccc(F)cc34)CC2)c2ccc(F)cc2)cc1` yielded an ED50 of 1.6 mg/kg.
Take `COc1ccc2onc(C3CCN(CCCc4c(C)[nH]c5ccccc45)CC3)c2c1`: the median effective dose (ED50) is over 10 mg/kg.
In turn, `COc1cc2onc(C3CCN(CCCC(c4ccc(F)cc4)c4ccc(F)cc4)CC3)c2cc1OC` returned an ED50 of over 10 mg/kg.
Consider `Fc1ccc(C(CCCN2CCC(c3noc4ccccc34)CC2)c2ccc(F)cc2)cc1`, for which the median effective dose (ED50) is 1.6 mg/kg.
Turning to `COc1cc2onc(C3CCN(CCCc4noc5cc(F)ccc45)CC3)c2cc1OC`, the ED50 was over 10 mg/kg.
As for `Oc1nc2ccccc2n1CCCN1CCC(c2noc3ccc(F)cc23)CC1`, the 50% effective dose (ED50) is over 10 mg/kg.
The compound `Oc1nc2ccccc2n1CCCN1CCC(c2noc3cccc(F)c23)CC1` had an ED50 of 5.3 mg/kg.
Consider `Fc1ccc2c(CCCN3CCC(c4noc5cc(Cl)ccc45)CC3)noc2c1`, for which the 50% effect level (ED50) was put at a dose of 2 mg/kg.
`COc1ccc2c(C3CCN(CCCn4c(O)nc5ccccc54)CC3)noc2c1` showed an ED50 of over 10 mg/kg.
The same measure, in the same setting: the value for `Cc1[nH]c2ccccc2c1CCCN1CCC(c2noc3ccc(F)cc23)CC1` was over 10 mg/kg; that for `COc1ccc2onc(C3CCN(CCCc4noc5cc(F)ccc45)CC3)c2c1` was 7.2 mg/kg; that for `Oc1ccc2onc(C3CCN(CCCC(c4ccc(F)cc4)c4ccc(F)cc4)CC3)c2c1` was over 10 mg/kg.
For `O=C(c1ccccc1)C1CCNCC1`, it took a dose of 1.3 mg/kg to reach the 50% effect level (ED50).
Turning to `COc1cc2onc(C3CCN(CCCn4c(O)nc5ccccc54)CC3)c2cc1OC`, the ED50 is over 10 mg/kg.
The same measure, in the same setting: the figure for `COc1cc2onc(C3CCN(CCCc4c(C)[nH]c5ccccc45)CC3)c2cc1OC` is over 10 mg/kg; for `Cc1[nH]c2ccccc2c1CCCN1CCC(c2noc3cc(Cl)ccc23)CC1` it is 4.1 mg/kg.
Same read-out and setting: the figure for `Oc1nc2ccccc2n1CCCN1CCC(c2noc3cc(F)ccc23)CC1` is 0.09 mg/kg.
Turning to `Fc1ccc2c(CCCN3CCC(c4noc5ccccc45)CC3)noc2c1`, it took a dose of 1.4 mg/kg to reach the 50% effect level (ED50).
Compound `COc1ccc2onc(C3CCN(CCCC(c4ccc(F)cc4)c4ccc(F)cc4)CC3)c2c1` came in with an ED50 of over 10 mg/kg.
With `Cc1[nH]c2ccccc2c1CCCN1CCC(c2noc3ccc(O)cc23)CC1`, the ED50 was over 10 mg/kg.
